Assays:
Design in all cases: dose 100 mg/kg, route oral
Settings in all cases: in vivo, po
Rattus norvegicus [1] = assay: Tested for gastric antisecretory activity in the pyloric ligated rat by observing the pH of gastric contents at dose 100 mg/kg orally 1 hr prior to the 5-h pyloric ligation period; pH < 2 is inactive; format: ADME, organism-based, Stomach
Rattus norvegicus [2] = assay: Tested for gastric antisecretory activity in the pyloric ligated rat by observing the pH of gastric contents at dose 100 mg/kg orally 1 hr prior to the 5-h pyloric ligation period; format: ADME, organism-based, Stomach
Rattus norvegicus [3] = assay: Tested for gastric antisecretory activity in the pyloric ligated rat by observing the pH of gastric contents at dose 100 mg/kg orally 1 h prior to the 5-h pyloric ligation period; Inactive; format: organism-based, Stomach

| Compound | pH (Rattus norvegicus [2]) | other results |
| --- | --- | --- |
| CC1(C)CC(C)(C(N)=O)c2cn(-c3ccccc3)cc21 (stereo not drawn) |  | pH (Rattus norvegicus [1]): 1.1 |
| CC1(C)CC(C)(C(N)=O)c2cn(-c3ccccc3)c(C=O)c21 (stereo not drawn) | 1.5 |  |
| CC1(C)CC(C)(C(N)=O)c2c1c(C=O)n(-c1ccccc1)c2C=O (stereo not drawn) | 1.2 |  |
| Cc1c2c(c(CO)n1-c1ccccc1)C(C)(C(N)=O)CC2(C)C (stereo not drawn) | 7 |  |
| Cc1c2c(cn1-c1ccccc1)C(C)(C)CC2(C)C(N)=O (stereo not drawn) |  | pH (Rattus norvegicus [3]): 1.2 |
| Cc1c2c(c(C=O)n1-c1ccccc1)C(C)(C)CC2(C)C(N)=O (stereo not drawn) | 1.5 |  |
| CCc1c2c(c(CC)n1-c1ccccc1)C(C)(C(N)=O)CC2(C)C (stereo not drawn) |  | pH (Rattus norvegicus [1]): 1.1 |
| Cc1c2c(c(C)n1-c1ccccc1)C(C)(C(N)=O)CC2(C)C (stereo not drawn) | 6.2 |  |
| Cc1c2c(c(C=O)n1-c1ccccc1)C(C)(C(N)=O)CC2(C)C (stereo not drawn) | 1.2 |  |
| Cc1c2c(c(CO)n1-c1ccccc1)C(C)(C)CC2(C)C(N)=O (stereo not drawn) | 5.7 |  |
| Cc1c2c(cn1-c1ccccc1)C(C)(C(N)=O)CC2(C)C (stereo not drawn) | 2.6 |  |
| CC1(C)CC(C)(C(N)=O)c2cn(-c3ccccc3)c(CO)c21 (stereo not drawn) | 6.4 |  |
| CC1(C)CC(C)(C(N)=O)c2c1c(CO)n(-c1ccccc1)c2CO (stereo not drawn) |  | pH (Rattus norvegicus [1]): 1.2 |
